Data set [1] relates to HT-29 cells. Description: HT-29 cell proliferation assay (Crystal Violet). The format is cell-based, human. The note with it: six days of treatment. The method, then:
The HT-29 cells were seeded in 24-well plates (35×10^3 cells/well) and were incubated for 24 hours. Then the cells were treated with different concentrations of ChoK inhibitors in the usual culture medium. Three days later, the wells were aspirated and both fresh medium and more amount of drug were added, and the cells were maintained for three more days. The quantification of the remaining cells in each well was carried out by means of the Crystal Violet method [Gillies, R. J., Didier, N., Denton, M. Anal. Biochem. 159, 109-113 (1986)], with some modifications [Hernández-Alcoceba, R., Saniger, L., Campos, J., Núñez, M. C., Khaless, F., Gallo, M. Á., Espinosa, A., Lacal, J. C. Oncogene, 15, 2289-2301 (1997)]. Briefly, the cells were washed with TD buffer and fixed with 1% glutaraldehyde for 15 minutes. After washing again with TD, the cell nuclei were coloured with 0.1% Crystal Violet for at least 30 minutes and washed three times with distilled water. The adsorbed colouring was resuspended in 10% acetic acid and the absorbance at 595 nm was determined in a spectrometer. […] This value determined by iterative curve adjustment. Two values are determined for each point of the curve, the experiment was repeated two or three times and the mean values were estimated. In the few cases in which the two values differed more than 50%, a third experiment was carried out to determine the real value. The IC50 value as a potency measurement is used to relate the biological activity of the compounds with their chemical structure.

Data set [2] has as its system MDA.MB.231 (breast cancer cell line) xenograft. Description: Antitumor activity in breast xenografts (MDA.MB.231). The format is in vivo, Balb/c nude mice. As for the experimental part: (§1) Six-week-old Balb/c nude mice (Charles River) were used. The research protocol was approved by the National Biotechnology Centre (CNB) Ethics Committee and animals were maintained in accordance to the Spanish Law guidelines (12 h light/dark cycle, and ad libitum access to food and autoclaved water). Mice were inoculated s.c. in both lower flanks with 1×10^6 of MDA.MB.231 (breast cancer cell line) cells resuspended in 100 μL of serum free DMEN (Invitrogen) media. MDA.MB.231 cells were passed at 80% to 90% confluence every 2 to 3 days in DMEN (Invitrogen) supplemented with 10% fetal bovine serum (FBS, Invitrogen), to ensure exponential growth before using them for the in vivo experiments.
Mice developing measurable subcutaneous tumors (˜0.1 cm^3) within 3 to 4 weeks were randomized to either treated or control groups (treated only with the drug vehicle). Tumor growth was monitored by measuring their size two to three times per week. Tumors were measured in two dimensions with digital calipers and tumor volume was estimated using the formula of a rational ellipse (D×d^2)/2, where D is the length of the long diameter and d is the short one. […]
Body weight of mice was assessed once per week and tumor volumes of the untreated and treated groups were compared and analyzed using the non parametric Mann-Whitney test. […]

Data set [3] deals with H460 (human NSCLC cells) xenograft. Description: Antitumor activity in lung xenografts (H460). The format is in vivo, Balb/c nude mice. As for the experimental part:
as §1, with “H460 (human NSCLC cells)” for “MDA.MB.231 (breast cancer cell line)”, “RPMI” for “DMEN”, “H460” for “MDA.MB.231”, “in” for “them for”
Mice developing measurable subcutaneous tumors (˜0.15-0.2 cm^3) within 2 weeks were randomized to either treated or control groups (treated only with the drug vehicle). Tumor growth was monitored by measuring their size two to three times per week. Tumors were measured in two dimensions with digital calipers and tumor volume was estimated using the formula of a rational ellipse (D×d^2)/2, where D is the length of the long diameter and d is the short one. […]
Body weight of mice was assessed once per week and tumor volumes between the untreated and treated groups were compared and analyzed using the non parametric Mann-Whitney test. […]

Data set [4] deals with DLD-1. As to the kind of experiment: MTT cell viability, panel of cell lines. The format is cell-based, human. The note with it: DLD-1, Colon, 72 h. The method, then: (§2) This effect can be observed in Table 1, where sensitivity to RSM932A of non-transformed MCF-10A epithelial cells is compared to 12 different human-tumor-derived cells from different tissues, including breast, lung, colon and pancreatic tumor cell lines.
(§3) The experimental conditions were as follows: cells were seeded at 10,000 cells per well into 96-well plates (BD, Falcon, Bioscience, San Jose, Calif., USA). Exponentially growing cells for 24 hours were exposed to different concentrations (quadruplicates for each concentration) of the compound for 72 hours. The colorimetric assay MTT (3-(4,5-dimethylthiazol-2-yl)-2,5-diphenyltetrazolium bromide was used to assess cell viability. The reaction correlates with absorbance read at 595 nm in a VersaMax Microplate Reader (Molecular Devices, Sunnyvale, Calif., USA). The IC50 (50% inhibitory concentration of a substance) is quantified by plotting the log OD (optical density) versus log drug concentration. IC50: Concentration of the compound that causes 50% growth inhibition with respect to control cells without drug.

Data set [5] concerns H1299. Description: MTT cell viability, panel of cell lines. Particulars: H1299, Lung, 72 h. The format is cell-based, human. The method, then: as §2, §3
The test system of data set [6] is H460. Description: MTT cell viability, panel of cell lines. Particulars: H460, Lung, 72 h. The format is cell-based, human. As for the experimental part: as §2, §3
The test system of data set [7] is H510. As to the kind of experiment: MTT cell viability, panel of cell lines. The format is cell-based, human. The note with it: H510, Lung, 72 h. The method, then:
as §2, §3

The test system of data set [8] is HCT-116. Description: MTT cell viability, panel of cell lines. The note with it: HCT-116, Colon, 72 h. The format is cell-based, human. The method, then:
as §2, §3

Data set [9] concerns HT-29. As to the kind of experiment: MTT cell viability, panel of cell lines. Type of data set: cell-based, human. Particulars: HT-29, Colon, 72 h. The method, then:
as §2, §3

The subject of data set [10] is MDA.MB.231. Description: MTT cell viability, panel of cell lines. Particulars: MDA.MB.231, Breast, 72 h. Type of data set: cell-based, human. As for the experimental part: as §2, §3
In data set [11] the test system is MDA.MB.468. As to the kind of experiment: MTT cell viability, panel of cell lines. Type of data set: cell-based, human. The note with it: MDA.MB.468, Breast, 72 h. The method, then:
as §2, §3

Data set [12] concerns Mia.PaCa.2. As to the kind of experiment: MTT cell viability, panel of cell lines. Type of data set: cell-based, human. Particulars: Mia.PaCa.2, Pancreas, 72 h. The method, then:
as §2, §3

Data set [13] relates to SW620. As to the kind of experiment: MTT cell viability, panel of cell lines. The note with it: SW620, Colon, 72 h. The format is cell-based, human. The method, then: as §2, §3
For data set [14], the system named is SkBr-3. As to the kind of experiment: MTT cell viability, panel of cell lines. The note with it: SkBr-3, Breast, 72 h. The format is cell-based, human. The method, then: as §2, §3
Data set [15] has as its system T47D. Description: MTT cell viability, panel of cell lines. Type of data set: cell-based, human. Particulars: Breast, 72 h. The method, then:
as §2, §3

Data set [16] relates to MCF10-A (non-transformed epithelial cells). Description: MTT cell viability, panel of cell lines. Type of data set: cell-based. Particulars: Non-tumorogenic, 72 h. The method, then: as §2, §3
Data set [17] concerns the target T1, choline kinase from Plasmodium falcifarum (Pf-ChoK) (Plasmodium falciparum, UniProt Q8IM71).
T1 construct: made in house; host or cells: E. coli
Description: Sensitivity of Plasmodium falcifarum choline kinase (expressed in E. coli). Particulars: read-out: IC50 (inhibition of Pf-ChoK). Type of data set: biochemical. As for the experimental part:
The sensitivity of choline kinase of the parasite Plasmodium falcifarum (Pf) was also tested with choline kinase inhibitors. Choline kinase from Pf was expressed in E. coli (FIG. 3) and tested for activity (data not shown). Optimal conditions were established and the IC50 determined.

The values below come from patent publication US8586613B2, “Pyridinium and quinolinium derivatives” (Universidad de Granada, priority 2004, dated 2013).

T1 sequence (Q8IM71 entry or part of it): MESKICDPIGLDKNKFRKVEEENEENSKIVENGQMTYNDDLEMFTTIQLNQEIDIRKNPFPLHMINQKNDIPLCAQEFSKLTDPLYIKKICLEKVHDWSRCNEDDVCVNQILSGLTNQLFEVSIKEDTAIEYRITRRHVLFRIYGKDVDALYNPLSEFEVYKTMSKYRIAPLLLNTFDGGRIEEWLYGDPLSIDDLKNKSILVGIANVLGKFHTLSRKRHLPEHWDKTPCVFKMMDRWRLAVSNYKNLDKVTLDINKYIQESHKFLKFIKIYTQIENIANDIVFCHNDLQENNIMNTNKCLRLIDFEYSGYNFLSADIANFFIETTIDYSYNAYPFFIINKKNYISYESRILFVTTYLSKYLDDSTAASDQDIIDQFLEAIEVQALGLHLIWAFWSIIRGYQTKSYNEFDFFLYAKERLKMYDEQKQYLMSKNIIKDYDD

As usually defined, the IC50 is the concentration that gives 50% inhibition. For the compound `CN(c1ccc(Cl)cc1)c1cc[n+](Cc2ccc(-c3ccc(C[n+]4ccc(N(C)c5ccc(Cl)cc5)c5ccccc54)cc3)cc2)c2ccccc12.[Br-].[Br-]` [Compound 7, 1,1′-(biphenyl-4,4′-diylmethylene)bis[4-(4-chloro-N-methylanilino)quinolinium]dibromide], the concentration for half-maximal inhibition (IC50) in [1] came to 1.2 µM; in data set [4] it was 2.1 µM; in data set [5] it was 1.9 µM; in [6] it was 1.9 µM; in [7] it was 1.4 µM; in data set [8], 1.8 µM. The IC50 amounted to 1.7 µM in data set [9]; 1.3 µM in [10]; 2.4 µM in data set [11]; 2.3 µM in data set [12]; 2.1 µM in data set [13]; 3.1 µM in data set [14]. Moreover, the results for the IC50 in data set [15], in data set [16] and in [17] were 2.25 µM, 7.1 µM and 0.93 µM, respectively. Further, the “Loss Weight” value in data set [2] (MDA.MB.231 xenograft mice, 1st day vs last day of treatment (24 g to 22.2 g)) is given as 7.5%; in data set [3] (H460 xenograft mice, 1st day vs last day of treatment (23.2 g to 20.8 g)), 10.5%. Further, the “percentage of inhibition of tumor growth” value came out at 54.5% in data set [2] (MDA.MB.231 xenograft, 5 mg/kg i.p., three days per week for three weeks, after 20 days, relative to control mice) and 64.5% in data set [3] (H460 xenograft, 6 mg/kg i.p., five days in a week plus a boost, after 22 days, relative to control mice).
